Literature values as cited in patent publication US20140294799A1, “USE OF COMPOSITIONS HAVING A LOW POLYAMINE CONTENT IN THE PREVENTION OR TREATMENT OF ADVERSE EFFECTS LINKED TO CANCER TREATMENT” (NUTRIALYS MEDICAL NUTRITION SA, priority 2011, published 2014).

Test system: skin of irradiated animals
Details: topical application to the skin of irradiated animals

| Compound | effect on dermatitis | effect on alopecia |
| --- | --- | --- |
| N=C(N)NCCCCN [agmatine] | reduce dermatitis | – |
| NCCCNCCCCNCCCN [spermine] | – | effective in the treatment of alopecia |
